Several values for one entry are separate records, joined by “and”; a condition that tells them apart may be missing. Identical values can stand only once.
Columns and labels:
[1] = molecular target: Dual specificity protein kinase CLK1 (Homo sapiens, UniProt P49759)
[2] = molecular target: Dual specificity protein kinase CLK4 (Homo sapiens, UniProt Q9HAZ1)
[3] = molecular target: Dual specificity tyrosine-phosphorylation-regulated kinase 1A (Homo sapiens, UniProt Q13627)
[4] = molecular target: Dual specificity tyrosine-phosphorylation-regulated kinase 1B (Homo sapiens, UniProt Q9Y463)
[5] = molecular target: Cyclin-dependent kinase 5 (Homo sapiens, UniProt Q00535)
Casein kinase I = type: protein assay, Homo sapiens
[6] = molecular target: Dual specificity protein kinase CLK2 (Homo sapiens, UniProt P49760)
[7] = molecular target: Dual specificity protein kinase CLK3 (Homo sapiens, UniProt P49761)
[8] = molecular target: T1, Dual specificity tyrosine-phosphorylation-regulated kinase 2 (Homo sapiens, UniProt Q92630)
T1 sequence (Q92630 whole entry): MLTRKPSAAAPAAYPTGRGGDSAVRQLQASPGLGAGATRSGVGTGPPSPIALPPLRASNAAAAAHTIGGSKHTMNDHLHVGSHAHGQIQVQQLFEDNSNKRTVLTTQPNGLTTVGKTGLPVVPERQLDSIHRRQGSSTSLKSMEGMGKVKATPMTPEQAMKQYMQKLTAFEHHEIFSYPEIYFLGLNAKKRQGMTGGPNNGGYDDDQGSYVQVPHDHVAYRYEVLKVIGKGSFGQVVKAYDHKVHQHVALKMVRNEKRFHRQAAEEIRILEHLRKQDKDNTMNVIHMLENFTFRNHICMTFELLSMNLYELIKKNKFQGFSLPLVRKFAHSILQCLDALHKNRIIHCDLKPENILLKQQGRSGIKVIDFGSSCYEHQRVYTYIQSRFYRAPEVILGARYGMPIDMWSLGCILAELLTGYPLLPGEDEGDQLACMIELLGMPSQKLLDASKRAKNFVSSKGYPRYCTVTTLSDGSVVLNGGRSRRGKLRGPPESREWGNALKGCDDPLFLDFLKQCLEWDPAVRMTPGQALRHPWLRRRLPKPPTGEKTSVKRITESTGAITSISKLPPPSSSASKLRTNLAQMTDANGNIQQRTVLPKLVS

[9] = molecular target: T2, Dual specificity tyrosine-phosphorylation-regulated kinase 3 (Homo sapiens, UniProt O43781)
T2 sequence (O43781 whole entry): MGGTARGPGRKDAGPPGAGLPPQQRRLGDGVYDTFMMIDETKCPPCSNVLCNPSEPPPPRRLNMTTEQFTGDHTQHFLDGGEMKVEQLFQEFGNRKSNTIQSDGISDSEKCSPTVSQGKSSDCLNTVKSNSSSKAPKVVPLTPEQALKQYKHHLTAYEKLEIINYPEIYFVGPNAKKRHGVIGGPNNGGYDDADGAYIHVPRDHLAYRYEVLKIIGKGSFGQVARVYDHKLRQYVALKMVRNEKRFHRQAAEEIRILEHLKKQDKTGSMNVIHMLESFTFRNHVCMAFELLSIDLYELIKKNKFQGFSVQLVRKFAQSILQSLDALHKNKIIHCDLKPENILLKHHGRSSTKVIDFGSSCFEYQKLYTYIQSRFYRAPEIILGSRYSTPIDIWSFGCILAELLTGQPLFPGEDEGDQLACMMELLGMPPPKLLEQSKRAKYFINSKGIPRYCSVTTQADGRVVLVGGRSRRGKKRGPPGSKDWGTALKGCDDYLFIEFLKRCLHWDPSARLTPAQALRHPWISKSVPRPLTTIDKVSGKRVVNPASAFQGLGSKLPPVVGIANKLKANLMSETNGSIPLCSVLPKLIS

[10] = molecular target: T3, Dual specificity tyrosine-phosphorylation-regulated kinase 4 (Homo sapiens, UniProt Q9NR20)
T3 sequence (Q9NR20 whole entry): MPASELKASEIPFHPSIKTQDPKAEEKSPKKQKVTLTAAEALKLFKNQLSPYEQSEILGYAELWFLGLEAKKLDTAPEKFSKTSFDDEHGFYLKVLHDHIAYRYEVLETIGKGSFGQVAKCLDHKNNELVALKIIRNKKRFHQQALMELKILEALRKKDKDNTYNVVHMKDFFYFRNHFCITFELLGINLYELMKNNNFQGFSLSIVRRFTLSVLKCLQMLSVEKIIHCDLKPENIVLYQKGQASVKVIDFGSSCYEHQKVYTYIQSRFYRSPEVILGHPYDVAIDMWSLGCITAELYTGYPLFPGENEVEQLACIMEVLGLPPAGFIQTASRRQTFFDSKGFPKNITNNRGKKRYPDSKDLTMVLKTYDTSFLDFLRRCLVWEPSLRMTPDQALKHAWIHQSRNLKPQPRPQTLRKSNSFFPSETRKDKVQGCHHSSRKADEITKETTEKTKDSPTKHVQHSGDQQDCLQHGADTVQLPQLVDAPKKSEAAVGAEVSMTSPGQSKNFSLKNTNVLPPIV

[11] = molecular target: Glycogen synthase kinase-3 (Homo sapiens, UniProt P49840+P49841); type: protein assay

Chain of Dual specificity protein kinase CLK2 (P49760 whole entry): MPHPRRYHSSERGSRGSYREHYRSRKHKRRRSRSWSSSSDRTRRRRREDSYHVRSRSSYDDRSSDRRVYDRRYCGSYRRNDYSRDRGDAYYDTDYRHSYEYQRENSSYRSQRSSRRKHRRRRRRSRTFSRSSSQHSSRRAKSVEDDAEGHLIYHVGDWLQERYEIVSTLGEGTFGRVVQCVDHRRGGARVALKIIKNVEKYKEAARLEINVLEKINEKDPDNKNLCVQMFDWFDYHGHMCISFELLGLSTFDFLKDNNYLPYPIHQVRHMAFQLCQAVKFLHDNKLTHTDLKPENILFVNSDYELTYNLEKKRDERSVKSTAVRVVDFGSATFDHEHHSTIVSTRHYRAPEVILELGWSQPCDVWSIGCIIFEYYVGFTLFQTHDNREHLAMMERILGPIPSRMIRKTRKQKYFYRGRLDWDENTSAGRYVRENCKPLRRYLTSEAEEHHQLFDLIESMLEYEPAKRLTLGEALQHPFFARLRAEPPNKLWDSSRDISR
Chain of Dual specificity protein kinase CLK1 (P49759 whole entry): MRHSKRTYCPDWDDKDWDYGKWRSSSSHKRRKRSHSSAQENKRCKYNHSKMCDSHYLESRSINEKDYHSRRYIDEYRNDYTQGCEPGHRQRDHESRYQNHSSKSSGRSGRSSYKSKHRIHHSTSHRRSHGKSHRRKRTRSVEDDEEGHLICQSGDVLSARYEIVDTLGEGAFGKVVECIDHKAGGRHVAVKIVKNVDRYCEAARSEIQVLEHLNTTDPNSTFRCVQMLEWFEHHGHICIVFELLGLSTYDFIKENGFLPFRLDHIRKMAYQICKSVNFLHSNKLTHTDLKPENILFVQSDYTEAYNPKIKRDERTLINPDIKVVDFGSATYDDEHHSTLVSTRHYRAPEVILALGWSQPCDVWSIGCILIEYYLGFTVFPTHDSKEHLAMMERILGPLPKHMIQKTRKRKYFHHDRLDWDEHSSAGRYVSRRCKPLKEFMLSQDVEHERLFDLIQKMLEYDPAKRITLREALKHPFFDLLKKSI
Chain of Dual specificity tyrosine-phosphorylation-regulated kinase 1B (Q9Y463 whole entry): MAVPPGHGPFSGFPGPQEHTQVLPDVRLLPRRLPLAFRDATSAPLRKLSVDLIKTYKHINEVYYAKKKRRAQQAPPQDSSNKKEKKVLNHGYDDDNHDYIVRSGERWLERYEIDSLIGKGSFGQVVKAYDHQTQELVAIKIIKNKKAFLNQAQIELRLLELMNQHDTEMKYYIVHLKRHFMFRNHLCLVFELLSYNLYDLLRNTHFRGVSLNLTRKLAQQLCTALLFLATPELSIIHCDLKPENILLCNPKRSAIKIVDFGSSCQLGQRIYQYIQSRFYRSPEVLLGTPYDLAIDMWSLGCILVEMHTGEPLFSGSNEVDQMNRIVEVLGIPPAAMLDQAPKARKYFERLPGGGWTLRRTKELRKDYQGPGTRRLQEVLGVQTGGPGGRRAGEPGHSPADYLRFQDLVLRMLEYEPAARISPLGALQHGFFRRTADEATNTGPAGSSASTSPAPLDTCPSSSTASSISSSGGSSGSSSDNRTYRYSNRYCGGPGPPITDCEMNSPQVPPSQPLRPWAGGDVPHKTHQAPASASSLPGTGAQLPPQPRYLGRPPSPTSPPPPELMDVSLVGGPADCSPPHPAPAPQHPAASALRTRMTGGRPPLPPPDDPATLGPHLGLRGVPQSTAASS
Chain of Dual specificity protein kinase CLK3 (P49761 whole entry): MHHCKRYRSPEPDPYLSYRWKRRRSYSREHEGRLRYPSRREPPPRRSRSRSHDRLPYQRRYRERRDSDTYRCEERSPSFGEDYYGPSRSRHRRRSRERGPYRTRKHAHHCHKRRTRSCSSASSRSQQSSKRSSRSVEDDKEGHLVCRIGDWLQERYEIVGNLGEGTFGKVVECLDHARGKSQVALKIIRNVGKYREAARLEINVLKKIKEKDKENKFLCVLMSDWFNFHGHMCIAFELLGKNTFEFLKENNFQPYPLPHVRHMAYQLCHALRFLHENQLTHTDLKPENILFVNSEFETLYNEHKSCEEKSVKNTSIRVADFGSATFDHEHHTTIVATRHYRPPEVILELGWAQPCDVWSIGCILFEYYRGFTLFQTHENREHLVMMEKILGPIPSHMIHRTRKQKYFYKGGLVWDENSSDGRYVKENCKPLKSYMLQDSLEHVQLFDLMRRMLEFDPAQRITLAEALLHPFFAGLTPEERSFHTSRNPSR
Chain of Cyclin-dependent kinase 5 (Q00535 whole entry): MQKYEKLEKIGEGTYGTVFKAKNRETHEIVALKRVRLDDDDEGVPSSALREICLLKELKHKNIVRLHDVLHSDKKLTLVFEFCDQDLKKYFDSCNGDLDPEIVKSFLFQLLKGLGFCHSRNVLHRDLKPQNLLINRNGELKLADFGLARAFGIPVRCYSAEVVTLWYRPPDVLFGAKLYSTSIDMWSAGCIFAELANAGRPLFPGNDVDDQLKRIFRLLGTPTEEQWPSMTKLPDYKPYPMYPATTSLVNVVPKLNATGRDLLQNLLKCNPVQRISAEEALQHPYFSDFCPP
Chain of Dual specificity protein kinase CLK4 (Q9HAZ1 whole entry): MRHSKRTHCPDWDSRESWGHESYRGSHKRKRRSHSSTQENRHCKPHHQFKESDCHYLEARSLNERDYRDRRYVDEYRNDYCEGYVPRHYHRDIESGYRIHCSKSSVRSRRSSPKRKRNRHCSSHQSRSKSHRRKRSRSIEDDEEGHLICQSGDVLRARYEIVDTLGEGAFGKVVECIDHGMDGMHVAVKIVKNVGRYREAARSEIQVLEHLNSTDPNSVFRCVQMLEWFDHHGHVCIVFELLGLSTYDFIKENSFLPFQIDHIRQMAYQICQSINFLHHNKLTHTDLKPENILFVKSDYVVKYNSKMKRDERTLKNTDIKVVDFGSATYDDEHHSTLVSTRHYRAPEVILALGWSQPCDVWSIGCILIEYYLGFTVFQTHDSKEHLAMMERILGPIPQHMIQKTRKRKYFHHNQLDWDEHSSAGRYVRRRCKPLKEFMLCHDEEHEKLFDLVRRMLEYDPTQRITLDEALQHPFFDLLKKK

| Structure (SMILES) | IC50 [1] [nM] | IC50 [2] | IC50 [3] [nM] | IC50 [4] | IC50 [5] [nM] | IC50 (Casein kinase I) [nM] | IC50 [6] [nM] | IC50 [7] [nM] | IC50 [8] [nM] | IC50 [9] [nM] | IC50 [10] [nM] | IC50 [11] [nM] |
| --- | --- | --- | --- | --- | --- | --- | --- | --- | --- | --- | --- | --- |
| COC[C@@H](CC(C)C)NC1=N/C(=C\c2ccc3ncsc3c2)C(=O)N1C1CCCC1 | 2450 | 1010 nM | > 10000 | > 10000 nM | > 10000 | > 10000 | 6470 | 5320 | 774 | > 10000 | > 10000 | > 10000 |
| COC[C@@H](CC(C)C)NC1=N/C(=C\c2cc3scnc3cn2)C(=O)N1 | > 10000 | 6490 nM | – | – | > 10000 | > 10000 | > 10000 | > 10000 | – | > 10000 | > 10000 | > 10000 |
| CN1C(=O)/C(=C/c2ccc3c(c2)OCO3)N=C1N [LEUCETTAMINE B] | – | – | – | – | – | > 10000 | – | – | – | – | – | > 10000 |
| CC(C)C[C@H](CO)NC1=N/C(=C\c2ccc3ncsc3c2)C(=O)N1 | 13.9 | – | – | – | > 10000 | > 10000 | – | 461 | 635 | 310 | 510 | 2320 |
| COC[C@@H](CC(C)C)NC1=N/C(=C\c2ccc3ncsc3n2)C(=O)N1 | 33.6 | 26.4 nM | 36.5 | 85 nM | > 10000 | > 10000 | – | 219 | 4360 | 1380 | 4780 | 4270 |
| COC[C@@H](CC(C)C)NC1=N/C(=C\c2ccc3ncsc3c2)C(=O)N1C1CCCCC1 | > 10000 | 4910 nM | – | > 10000 nM | > 10000 | > 10000 | > 10000 | > 10000 | 3970 | – | > 10000 | > 10000 |
| CC(C)C[C@@H](CO)NC1=N/C(=C\c2ccc3ncsc3c2)C(=O)N1 | 38.7 | – | – | – | > 10000 | > 10000 | – | 474 | 2840 | 493 | 5180 | 8165 |
| CCN1C(=O)/C(=C/c2ccc3ncsc3c2)N=C1N[C@@H](COC)CC(C)C | 200 | 58.5 nM | – | – | > 10000 | > 10000 | – | 1360 | 165 | – | 2560 | 7867 |
| COC[C@@H](CC(C)C)NC1=N/C(=C\c2ccc3ncsc3c2)C(=O)N1C | – | 11.6 nM and 12.4 nM | – | 9.6 nM and 16.6 nM | > 10000 | > 10000 | – | – | – | – | 525 | 4481 |
| O=C1NC(Nc2ccccc2)=N/C1=C\c1ccc2c(c1)OCO2 | – | 10 nM | – | – | – | > 10000 | – | 5840 | – | – | 507 | 1544 |
| COC[C@@H](CC(C)C)NC1=N/C(=C\c2ccc3ncsc3c2)C(=O)N1C1CC1 | – | 240 nM | 506 | – | > 10000 | > 10000 | 643 | 1260 | – | 842 | 2860 | 8988 |
| COC[C@@H](CC(C)C)NC1=N/C(=C\c2cnc3ncsc3c2)C(=O)N1 | > 10000 | > 10000 nM | – | – | > 10000 | > 10000 | > 10000 | > 10000 | > 10000 | – | > 10000 | > 10000 |
| COC[C@@H](CC(C)C)NC1=N/C(=C\c2ccc3ncsc3c2)C(=O)N1C1CCC1 | 1420 | 1210 nM | 5620 | – | > 10000 | > 10000 | – | 4690 | 581 | 5320 | – | > 10000 |

Source: ChEMBL document CHEMBL5375979, “Chemical, Biochemical, Cellular, and Physiological Characterization of Leucettinib-21, a Down Syndrome and Alzheimer's Disease Drug Candidate” (J Med Chem, 2023)
